# Assay results: PubChem BioAssay (NCI)
#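 Abbreviation: GI50, concentration required for 50% inhibition of growth. TGI is the concentration that stops growth completely.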
# How the values were obtained:
# Assay in all cases: DTP human tumour cell line panel, 384-well format
# 786-0 renal = test system: 786-0 renal
# A498 renal = test system: A498 renal
# A549 NSCLC = test system: A549 NSCLC
# ACHN renal = test system: ACHN renal
# BT-549 breast = test system: BT-549 breast
# CAKI-1 renal = test system: CAKI-1 renal
# CCRF-CEM leukemia = test system: CCRF-CEM leukemia
# COLO 205 colon = test system: COLO 205 colon
# DU-145 prostate = test system: DU-145 prostate
# EKVX NSCLC = test system: EKVX NSCLC
# HCC-2998 colon = test system: HCC-2998 colon
# HCT-15 colon = test system: HCT-15 colon
# HL-60(TB) leukemia = test system: HL-60(TB) leukemia
# HOP-62 NSCLC = test system: HOP-62 NSCLC
# HOP-92 NSCLC = test system: HOP-92 NSCLC
# HS 578T breast = test system: HS 578T breast
# HT29 colon = test system: HT29 colon
# IGROV1 ovarian = test system: IGROV1 ovarian
# K-562 leukemia = test system: K-562 leukemia
# KM12 colon = test system: KM12 colon
# LOX IMVI melanoma = test system: LOX IMVI melanoma
# M14 melanoma = test system: M14 melanoma
# MALME-3M melanoma = test system: MALME-3M melanoma
# MCF7 breast = test system: MCF7 breast
# MDA-MB-231 breast = test system: MDA-MB-231 breast
# MDA-MB-435 melanoma = test system: MDA-MB-435 melanoma
# MDA-MB-468 breast = test system: MDA-MB-468 breast
# MOLT-4 leukemia = test system: MOLT-4 leukemia
# NCI-H226 lung = test system: NCI-H226 lung
# NCI-H23 lung = test system: NCI-H23 lung
# NCI-H322M lung = test system: NCI-H322M lung
# NCI-H460 NSCLC = test system: NCI-H460 NSCLC
# NCI-H522 lung = test system: NCI-H522 lung
# NCI/ADR-RES ovarian = test system: NCI/ADR-RES ovarian
# OVCAR-3 ovarian = test system: OVCAR-3 ovarian
# OVCAR-4 ovarian = test system: OVCAR-4 ovarian
# OVCAR-5 ovarian = test system: OVCAR-5 ovarian
# OVCAR-8 ovarian = test system: OVCAR-8 ovarian
# PC-3 prostate = test system: PC-3 prostate
# RPMI-8226 leukemia = test system: RPMI-8226 leukemia
# RXF 393 renal = test system: RXF 393 renal
# SF-268 CNS = test system: SF-268 CNS
# SF-295 CNS = test system: SF-295 CNS
# SF-539 CNS = test system: SF-539 CNS
# SK-MEL-28 melanoma = test system: SK-MEL-28 melanoma
# SK-MEL-5 melanoma = test system: SK-MEL-5 melanoma
# SK-OV-3 ovarian = test system: SK-OV-3 ovarian
# SN12C renal = test system: SN12C renal
# SNB-19 CNS = test system: SNB-19 CNS
# SNB-75 CNS = test system: SNB-75 CNS
# SR leukemia = test system: SR leukemia
# SW-620 colon = test system: SW-620 colon
# T-47D breast = test system: T-47D breast
# TK-10 renal = test system: TK-10 renal
# UACC-257 melanoma = test system: UACC-257 melanoma
# UACC-62 melanoma = test system: UACC-62 melanoma
# UO-31 renal = test system: UO-31 renal
smiles,measurement,setting,value
CC(C)(O)c1coc(S(=O)(=O)/N=C(\O)Nc2c3c(cc4c2CCC4)CCC3)c1,GI50,786-0 renal,> 100 µM
same,TGI,786-0 renal,> 100 µM
same,GI50,A498 renal,> 100 µM
same,TGI,A498 renal,> 100 µM
same,GI50,A549 NSCLC,> 100 µM
same,TGI,A549 NSCLC,> 100 µM
same,GI50,ACHN renal,> 100 µM
same,TGI,ACHN renal,> 100 µM
same,GI50,BT-549 breast,> 100 µM
same,TGI,BT-549 breast,> 100 µM
same,GI50,CAKI-1 renal,> 100 µM
same,TGI,CAKI-1 renal,> 100 µM
same,GI50,CCRF-CEM leukemia,> 100 µM
same,TGI,CCRF-CEM leukemia,> 100 µM
same,GI50,COLO 205 colon,> 100 µM
same,TGI,COLO 205 colon,> 100 µM
same,GI50,DU-145 prostate,> 100 µM
same,TGI,DU-145 prostate,> 100 µM
same,GI50,EKVX NSCLC,> 100 µM
same,TGI,EKVX NSCLC,> 100 µM
same,GI50,HCC-2998 colon,> 100 µM
same,TGI,HCC-2998 colon,> 100 µM
same,GI50,HCT-15 colon,> 100 µM
same,TGI,HCT-15 colon,> 100 µM
same,GI50,HL-60(TB) leukemia,> 100 µM
same,TGI,HL-60(TB) leukemia,> 100 µM
same,GI50,HOP-62 NSCLC,> 100 µM
same,TGI,HOP-62 NSCLC,> 100 µM
same,GI50,HOP-92 NSCLC,> 100 µM
same,TGI,HOP-92 NSCLC,> 100 µM
same,GI50,HS 578T breast,> 100 µM
same,TGI,HS 578T breast,> 100 µM
same,GI50,HT29 colon,> 100 µM
same,TGI,HT29 colon,> 100 µM
same,GI50,IGROV1 ovarian,> 100 µM
same,TGI,IGROV1 ovarian,> 100 µM
same,GI50,K-562 leukemia,> 100 µM
same,TGI,K-562 leukemia,> 100 µM
same,GI50,KM12 colon,> 100 µM
same,TGI,KM12 colon,> 100 µM
same,GI50,LOX IMVI melanoma,> 100 µM
same,TGI,LOX IMVI melanoma,> 100 µM
same,GI50,M14 melanoma,> 100 µM
same,TGI,M14 melanoma,> 100 µM
same,GI50,MALME-3M melanoma,> 100 µM
same,TGI,MALME-3M melanoma,> 100 µM
same,GI50,MCF7 breast,> 100 µM
same,TGI,MCF7 breast,> 100 µM
same,GI50,MDA-MB-231 breast,> 100 µM
same,TGI,MDA-MB-231 breast,> 100 µM
same,GI50,MDA-MB-435 melanoma,> 100 µM
same,TGI,MDA-MB-435 melanoma,> 100 µM
same,GI50,MDA-MB-468 breast,> 100 µM
same,TGI,MDA-MB-468 breast,> 100 µM
same,GI50,MOLT-4 leukemia,> 100 µM
same,TGI,MOLT-4 leukemia,> 100 µM
same,GI50,NCI-H226 lung,> 100 µM
same,TGI,NCI-H226 lung,> 100 µM
same,GI50,NCI-H23 lung,> 100 µM
same,TGI,NCI-H23 lung,> 100 µM
same,GI50,NCI-H322M lung,> 100 µM
same,TGI,NCI-H322M lung,> 100 µM
same,GI50,NCI-H460 NSCLC,> 100 µM
same,TGI,NCI-H460 NSCLC,> 100 µM
same,GI50,NCI-H522 lung,> 100 µM
same,TGI,NCI-H522 lung,> 100 µM
same,GI50,NCI/ADR-RES ovarian,> 100 µM
same,TGI,NCI/ADR-RES ovarian,> 100 µM
same,GI50,OVCAR-3 ovarian,> 100 µM
same,TGI,OVCAR-3 ovarian,> 100 µM
same,GI50,OVCAR-4 ovarian,> 100 µM
same,TGI,OVCAR-4 ovarian,> 100 µM
same,GI50,OVCAR-5 ovarian,> 100 µM
same,TGI,OVCAR-5 ovarian,> 100 µM
same,GI50,OVCAR-8 ovarian,> 100 µM
same,TGI,OVCAR-8 ovarian,> 100 µM
same,GI50,PC-3 prostate,> 100 µM
same,TGI,PC-3 prostate,> 100 µM
same,GI50,RPMI-8226 leukemia,> 100 µM
same,TGI,RPMI-8226 leukemia,> 100 µM
same,GI50,RXF 393 renal,> 100 µM
same,TGI,RXF 393 renal,> 100 µM
same,GI50,SF-268 CNS,> 100 µM
same,TGI,SF-268 CNS,> 100 µM
same,GI50,SF-295 CNS,> 100 µM
same,TGI,SF-295 CNS,> 100 µM
same,GI50,SF-539 CNS,> 100 µM
same,TGI,SF-539 CNS,> 100 µM
same,GI50,SK-MEL-28 melanoma,> 100 µM
same,TGI,SK-MEL-28 melanoma,> 100 µM
same,GI50,SK-MEL-5 melanoma,> 100 µM
same,TGI,SK-MEL-5 melanoma,> 100 µM
same,GI50,SK-OV-3 ovarian,> 100 µM
same,TGI,SK-OV-3 ovarian,> 100 µM
same,GI50,SN12C renal,> 100 µM
same,TGI,SN12C renal,> 100 µM
same,GI50,SNB-19 CNS,> 100 µM
same,TGI,SNB-19 CNS,> 100 µM
same,GI50,SNB-75 CNS,> 100 µM
same,TGI,SNB-75 CNS,> 100 µM
same,GI50,SR leukemia,> 100 µM
same,TGI,SR leukemia,> 100 µM
same,GI50,SW-620 colon,> 100 µM
same,TGI,SW-620 colon,> 100 µM
same,GI50,T-47D breast,> 100 µM
same,TGI,T-47D breast,> 100 µM
same,GI50,TK-10 renal,> 100 µM
same,TGI,TK-10 renal,> 100 µM
same,GI50,UACC-257 melanoma,> 100 µM
same,TGI,UACC-257 melanoma,> 100 µM
same,GI50,UACC-62 melanoma,> 100 µM
same,TGI,UACC-62 melanoma,> 100 µM
same,GI50,UO-31 renal,> 100 µM
same,TGI,UO-31 renal,> 100 µM
